Numbers after ± are expanded uncertainties.
Key:
[1] = xn = mol fraction of the nth substance listed; settings: Liquid, x1 = 1; for viscosity: 2 kPa, Falling or rolling sphere viscometry; for speed of sound / mass density: 100 kPa; for speed of sound: Single path-length method; for mass density: Vibrating tube method
[2] = Liquid; for viscosity: 2 kPa, Falling or rolling sphere viscometry; for speed of sound / mass density: 100 kPa; for speed of sound: Single path-length method; for mass density: Vibrating tube method
[3] = molar heat capacity at constant pressure; settings: 100 kPa, Liquid, Extra sensitive DSC

Structure (SMILES)	viscosity ([2]; 298.15 K) [mPa·s]	speed of sound ([2]; 298.15 K) [m/s]	mass density ([2]; 298.15 K) [kg/m3]	viscosity ([2]; 303.15 K) [mPa·s]	speed of sound ([2]; 303.15 K) [m/s]	mass density ([2]; 303.15 K) [kg/m3]	viscosity ([2]; 308.15 K) [mPa·s]	speed of sound ([2]; 308.15 K) [m/s]	mass density ([2]; 308.15 K) [kg/m3]	viscosity ([2]; 313.15 K) [mPa·s]	speed of sound ([2]; 313.15 K) [m/s]	mass density ([2]; 313.15 K) [kg/m3]	viscosity ([2]; 318.15 K) [mPa·s]	speed of sound ([2]; 318.15 K) [m/s]	mass density ([2]; 318.15 K) [kg/m3]	viscosity ([2]; 323.15 K) [mPa·s]	speed of sound ([2]; 323.15 K) [m/s]	mass density ([2]; 323.15 K) [kg/m3]	molar heat capacity at constant pressure ([3]; 298.15 K) [J/K/mol]	molar heat capacity at constant pressure ([3]; 303.15 K) [J/K/mol]	also measured
CCCC[n+]1ccn(C)c1.O=S(=O)([N-]S(=O)(=O)C(F)(F)F)C(F)(F)F + CNc1ccccc1	–	–	–	–	–	–	–	–	–	–	–	–	–	–	–	–	–	–	–	–	viscosity ([1]; 298.15 K): 49.24 ± 7.4 mPa·s; speed of sound ([1]; 298.15 K): 1227.9 ± 1.1 m/s; mass density ([1]; 298.15 K): 1436.62 ± 1.1 kg/m3; viscosity ([1]; 303.15 K): 40 ± 6.5 mPa·s; speed of sound ([1]; 303.15 K): 1216.8 ± 1.1 m/s; mass density ([1]; 303.15 K): 1431.8 ± 1.1 kg/m3; viscosity ([1]; 308.15 K): 33.02 ± 5 mPa·s; speed of sound ([1]; 308.15 K): 1205.8 ± 1.1 m/s; mass density ([1]; 308.15 K): 1426.98 ± 1.1 kg/m3; viscosity ([1]; 313.15 K): 27.66 ± 3.9 mPa·s; speed of sound ([1]; 313.15 K): 1195 ± 1.1 m/s; mass density ([1]; 313.15 K): 1422.16 ± 1.1 kg/m3; viscosity ([1]; 318.15 K): 23.47 ± 3.1 mPa·s; speed of sound ([1]; 318.15 K): 1184.2 ± 1.1 m/s; mass density ([1]; 318.15 K): 1417.34 ± 1.1 kg/m3; viscosity ([1]; 323.15 K): 20.15 ± 2.8 mPa·s; speed of sound ([1]; 323.15 K): 1173.6 ± 1.1 m/s; mass density ([1]; 323.15 K): 1412.52 ± 1.1 kg/m3
CCCC[n+]1ccn(C)c1.O=S(=O)([N-]S(=O)(=O)C(F)(F)F)C(F)(F)F	49.24 ± 7.4	1227.9 ± 1.1	1436.62 ± 1.7	40 ± 6.5	1216.8 ± 1.1	1431.8 ± 1.7	33.02 ± 5	1205.8 ± 1.1	1426.98 ± 1.7	27.66 ± 3.9	1195 ± 1.1	1422.16 ± 1.7	23.47 ± 3.1	1184.2 ± 1.1	1417.34 ± 1.7	20.15 ± 2.8	1173.6 ± 1.1	1412.52 ± 1.7	567.22 ± 26	569.85 ± 26	molar heat capacity at constant pressure ([3]; 308.15 K): 572.64 ± 27 J/K/mol; molar heat capacity at constant pressure ([3]; 313.15 K): 575.47 ± 27 J/K/mol; molar heat capacity at constant pressure ([3]; 318.15 K): 578.38 ± 27 J/K/mol; molar heat capacity at constant pressure ([3]; 323.15 K): 581.52 ± 27 J/K/mol
CNc1ccccc1 [N-methylaniline]	1.94 ± 0.62	1564.5 ± 0.7	982.7 ± 1.6	1.73 ± 0.62	1546.1 ± 0.7	978.59 ± 1.6	1.55 ± 0.61	1528.3 ± 0.7	974.47 ± 1.6	1.4 ± 0.61	1511.5 ± 0.7	970.36 ± 1.6	1.27 ± 0.61	1492.8 ± 0.7	966.24 ± 1.6	1.16	1476.2 ± 0.7	962.13 ± 1.6	207.12 ± 9.6	210.92 ± 9.8	molar heat capacity at constant pressure ([3]; 308.15 K): 214.73 ± 10 J/K/mol; molar heat capacity at constant pressure ([3]; 313.15 K): 218.53 ± 10 J/K/mol; molar heat capacity at constant pressure ([3]; 318.15 K): 222.37 ± 10 J/K/mol; molar heat capacity at constant pressure ([3]; 323.15 K): 225.88 ± 10 J/K/mol
CCCCn1cc[n+](C)c1.F[P-](F)(F)(F)(F)F [1-butyl-3-methylimidazolium hexafluorophosphate]	272.86 ± 56	1443.7 ± 3.2	1367.24 ± 1.1	204.1 ± 47	1431.9 ± 3.2	1363.08 ± 1.1	155.7 ± 33	1420.1 ± 3.2	1358.91 ± 1.1	120.9 ± 24	1408.5 ± 3.2	1354.74 ± 1.1	95.39 ± 18	1397.1 ± 3.2	1350.58 ± 1.1	76.37 ± 15	1385.9 ± 3.2	1346.41 ± 1.1	407.08 ± 19	410.01 ± 19	molar heat capacity at constant pressure ([3]; 308.15 K): 412.77 ± 19 J/K/mol; molar heat capacity at constant pressure ([3]; 313.15 K): 415.44 ± 19 J/K/mol; molar heat capacity at constant pressure ([3]; 318.15 K): 418.26 ± 19 J/K/mol; molar heat capacity at constant pressure ([3]; 323.15 K): 421.21 ± 20 J/K/mol
CCCCn1cc[n+](C)c1.F[P-](F)(F)(F)(F)F [1-butyl-3-methylimidazolium hexafluorophosphate] + CNc1ccccc1	–	–	–	–	–	–	–	–	–	–	–	–	–	–	–	–	–	–	–	–	viscosity ([1]; 298.15 K): 272.86 ± 57 mPa·s; speed of sound ([1]; 298.15 K): 1443.7 ± 3.2 m/s; mass density ([1]; 298.15 K): 1367.24 ± 1.1 kg/m3; viscosity ([1]; 303.15 K): 204.1 ± 48 mPa·s; speed of sound ([1]; 303.15 K): 1431.9 ± 3.2 m/s; mass density ([1]; 303.15 K): 1363.08 ± 1.1 kg/m3; viscosity ([1]; 308.15 K): 155.7 ± 34 mPa·s; speed of sound ([1]; 308.15 K): 1420.1 ± 3.2 m/s; mass density ([1]; 308.15 K): 1358.91 ± 1.1 kg/m3; viscosity ([1]; 313.15 K): 120.9 ± 24 mPa·s; speed of sound ([1]; 313.15 K): 1408.5 ± 3.2 m/s; mass density ([1]; 313.15 K): 1354.74 ± 1.1 kg/m3; viscosity ([1]; 318.15 K): 95.39 ± 18 mPa·s; speed of sound ([1]; 318.15 K): 1397.1 ± 3.2 m/s; mass density ([1]; 318.15 K): 1350.58 ± 1.1 kg/m3; viscosity ([1]; 323.15 K): 76.37 ± 15 mPa·s; speed of sound ([1]; 323.15 K): 1385.9 ± 3.2 m/s; mass density ([1]; 323.15 K): 1346.41 ± 1.1 kg/m3

Source: the NIST ThermoML archive (doi:10.1021/acs.jced.8b01095)
